From patent US11021470B2, “2-substituted quinazoline compounds comprising a substituted heterocyclic group and methods of use thereof” (Araxes Pharma LLC, priority 2015, dated 2021)

Target: T1, KRAS G12C 1-169, his-tagged protein, GDP-loaded (Homo sapiens, UniProt P01116, G12C)
T1 construct: KRAS G12C 1-169, his-tagged protein, GDP-loaded
Assay: KRAS G12C covalent binding (% modification) by mass spectrometry, ten or three minute incubation
Details: covalent binding to KRAS G12C after a ten minute incubation period
Summary of the method: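 GDP-loaded protein in 20 mM Hepes, 150 mM NaCl, 1 mM MgCl2 was incubated with compound (final 100, 30 or 10 μM; 2% DMSO) at room temperature, then quenched with formic acid. Intact-protein LC-MS with charge-envelope deconvolution gave masses and intensities of modified and unmodified species.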

Row | Molecule | Binding %
1 | C=CC(=O)N1C[C@H](C)N(c2nc(OCCN3CC(F)(F)C3)nc3c(F)c(-c4c(O)cccc4F)c(Cl)cc23)C[C@H]1C (atropisomer, axis not shown) [Compound 84, 1-((2R,5S)-4-((S)-6-chloro-2-(2-(3,3-difluoroazetidin-1-yl)ethoxy)-8-fluoro-7-(2-fluoro-6-hydroxyphenyl)quinazolin-4-yl)-2,5-dimethylpiperazin-1-yl)prop-2-en-1-one] | +++ (+++ indicates binding activity greater than 90%)
2 | C=CC(=O)N1CCN(c2nc(N3CC(N(C)C)C3)nc3c(F)c(-c4c(O)cccc4F)c(Cl)cc23)C[C@@H]1C [Compound 82, 1-((2S)-4-(6-chloro-2-(3-(dimethylamino)azetidin-1-yl)-8-fluoro-7-(2-fluoro-6-hydroxyphenyl)quinazolin-4-yl)-2-methylpiperazin-1-yl)prop-2-en-1-one] | ++ (++ indicates binding activity from 50 to 90%)
3 | C=CC(=O)N1C[C@@H](C)N(c2nc(N3CC(N(C)C)C3)nc3c(F)c(-c4c(O)cccc4F)c(Cl)cc23)C[C@@H]1C [Compound 81, 1-((2S,5R)-4-(6-chloro-2-(3-(dimethylamino)azetidin-1-yl)-8-fluoro-7-(2-fluoro-6-hydroxyphenyl)quinazolin-4-yl)-2,5-dimethylpiperazin-1-yl)prop-2-en-1-one] | + (+ indicates binding activity greater than 0% and up to 50%)

Same assay, conditions: covalent binding to KRAS G12C, % modification after a three minute incubation period

Row | Molecule | Binding %
4 | C=CC(=O)N1C[C@H](C)N(c2nc(N3CC(N(C)C)C3)nc3c(F)c(-c4c(C)ccc5[nH]nc(CO)c45)c(Cl)cc23)C[C@H]1C [Compound 299, 1-((2R,5S)-4-(6-chloro-2-(3-(dimethylamino)azetidin-1-yl)-8-fluoro-7-(3-(hydroxymethyl)-5-methyl-1H-indazol-4-yl)quinazolin-4-yl)-2,5-dimethylpiperazin-1-yl)prop-2-en-1-one] | ++ (++ indicates binding activity from 50 to 90%)
5 | C=CC(=O)N1C[C@H](C)N(c2nc(N3CC(N(C)C)C3)nc3c(F)c(-c4c(C)ccc5[nH]nc(I)c45)c(Cl)cc23)C[C@H]1C [Compound 286, 1-((2R,5S)-4-(6-chloro-2-(3-(dimethylamino)azetidin-1-yl)-8-fluoro-7-(3-iodo-5-methyl-1H-indazol-4-yl)quinazolin-4-yl)-2,5-dimethylpiperazin-1-yl)prop-2-en-1-one] | +++ (+++ indicates binding activity greater than 90%)
6 | C=CC(=O)N1C[C@H](C)N(c2nc(OCCc3nccn3C)nc3c(F)c(-c4c(O)cccc4F)c(Cl)cc23)C[C@H]1C (atropisomer, axis not shown) [Compound 288, 1-((2R,5S)-4-((S)-6-chloro-8-fluoro-7-(2-fluoro-6-hydroxyphenyl)-2-(2-(1-methyl-1H-imidazol-2-yl)ethoxy)quinazolin-4-yl)-2,5-dimethylpiperazin-1-yl)prop-2-en-1-one] | +++ (+++ indicates binding activity greater than 90%)
7 | C=CC(=O)N1C[C@H](C)N(c2nc(OCCn3ccnc3C#N)nc3c(F)c(-c4c(C)ccc5[nH]ncc45)c(Cl)cc23)C[C@H]1C [Compound 279, 1-(2-((4-((2S,5R)-4-acryloyl-2,5-dimethylpiperazin-1-yl)-6-chloro-8-fluoro-7-(5-methyl-1H-indazol-4-yl)quinazolin-2-yl)oxy)ethyl)-1H-imidazole-2-carbonitrile] | ++ (++ indicates binding activity from 50 to 90%)
8 | C=CC(=O)N1C[C@H](C)N(c2nc(OCCn3cnc4ccccc43)nc3c(F)c(-c4c(O)cccc4F)c(Cl)cc23)C[C@H]1C [Compound 254, 1-((2R,5S)-4-(2-(2-(1H-benzo[d]imidazol-1-yl)ethoxy)-6-chloro-8-fluoro-7-(2-fluoro-6-hydroxyphenyl)quinazolin-4-yl)-2,5-dimethylpiperazin-1-yl)prop-2-en-1-one] | + (+ indicates binding activity greater than 0% and up to 50%)
9 | C=CC(=O)N1C[C@H](C)N(c2nc(OCC(C)(C)O)nc3c(F)c(-c4c(O)cccc4F)c(Cl)cc23)C[C@H]1C [Compound 281, 1-((2R,5S)-4-(6-chloro-8-fluoro-7-(2-fluoro-6-hydroxyphenyl)-2-(2-hydroxy-2-methylpropoxy)quinazolin-4-yl)-2,5-dimethylpiperazin-1-yl)prop-2-en-1-one] | ++ (++ indicates binding activity from 50 to 90%)
10 | C=CC(=O)N1C[C@H](C)N(c2nc(N3CC(N(C)C)C3)nc3c(F)c(-c4c(C)ccc5[nH]nc(C(N)=O)c45)c(Cl)cc23)C[C@H]1C [Compound 296, 4-(4-((2S,5R)-4-acryloyl-2,5-dimethylpiperazin-1-yl)-6-chloro-2-(3-(dimethylamino)azetidin-1-yl)-8-fluoroquinazolin-7-yl)-5-methyl-1H-indazole-3-carboxamide] | ++ (++ indicates binding activity from 50 to 90%)
11 | [2H]C([2H])([2H])N(C1CN(c2nc(N3C[C@@H](C)N(C(=O)C=C)C[C@@H]3C)c3cc(Cl)c(-c4c(O)cccc4F)c(F)c3n2)C1)C([2H])([2H])[2H] (atropisomer, axis not shown) [Compound 212, 1-((2R,5S)-4-(2-(3-(bis(tridueteromethyl)amino)azetidin-1-yl)-6-chloro-8-fluoro-7-((R)-2-fluoro-6-hydroxyphenyl)quinazolin-4-yl)-2,5-dimethylpiperazin-1-yl)prop-2-en-1-one] | + (+ indicates binding activity greater than 0% and up to 50%)
12 | C=CC(=O)N1C[C@H](C)N(c2nc(OCCn3ccnc3C3CC3)nc3c(F)c(-c4c(O)cccc4F)c(Cl)cc23)C[C@H]1C (atropisomer, axis not shown) [Compound 275, 1-((2R,5S)-4-(6-chloro-2-(2-(2-cyclopropyl-1H-imidazol-1-yl)ethoxy)-8-fluoro-7-((S)-2-fluoro-6-hydroxyphenyl)quinazolin-4-yl)-2,5-dimethylpiperazin-1-yl)prop-2-en-1-one] | +++ (+++ indicates binding activity greater than 90%)
13 | C=CC(=O)N1C[C@H](C)N(c2nc(N3CC(N(C)C)C3)nc3c(F)c(-c4c[nH]c5c(F)cccc45)c(Cl)cc23)C[C@H]1C [Compound 294, 1-((2R,5S)-4-(6-chloro-2-(3-(dimethylamino)azetidin-1-yl)-8-fluoro-7-(7-fluoro-1H-indol-3-yl)quinazolin-4-yl)-2,5-dimethylpiperazin-1-yl)prop-2-en-1-one] | + (+ indicates binding activity greater than 0% and up to 50%)
14 | C=CC(=O)N1C[C@H](C)N(c2nc(N3CC(N(C)C)C3)nc3c(F)c(-c4c(C)ccc5[nH]cnc45)c(Cl)cc23)C[C@H]1C [Compound 273, 1-((2R,5S)-4-(6-chloro-2-(3-(dimethylamino)azetidin-1-yl)-8-fluoro-7-(5-methyl-1H-benzo[d]imidazol-4-yl)quinazolin-4-yl)-2,5-dimethylpiperazin-1-yl)prop-2-en-1-one] | +++ (+++ indicates binding activity greater than 90%)
15 | 1-((2R,5S)-4-(6-chloro-2-(2-(diethylamino)ethoxy)-8-fluoro-7-((S)-6-methyl-1H-indazol-7-yl)quinazolin-4-yl)-2,5-dimethylpiperazin-1-yl)prop-2-en-1-one [Compound 157] | + (+ indicates binding activity greater than 0% and up to 50%)
16 | C=CC(=O)N1C[C@H](C)N(c2nc(OCCc3nccn3C)nc3c(F)c(-c4c(C)ccc5[nH]ncc45)c(Cl)cc23)C[C@H]1C [Compound 293, 1-((2R,5S)-4-(6-chloro-8-fluoro-2-(2-(1-methyl-1H-imidazol-2-yl)ethoxy)-7-(5-methyl-1H-indazol-4-yl)quinazolin-4-yl)-2,5-dimethylpiperazin-1-yl)prop-2-en-1-one] | ++ (++ indicates binding activity from 50 to 90%)
17 | C=CC(=O)N1C[C@@H](C)N(c2nc(N3CC(N(C)C)C3)nc3c(F)c(-c4c(O)cccc4F)c(Cl)cc23)C[C@@H]1C [Compound 87, 1-((2S,5R)-4-(6-chloro-2-(3-(dimethylamino)azetidin-1-yl)-8-fluoro-7-(2-fluoro-6-hydroxyphenyl)quinazolin-4-yl)-2,5-dimethylpiperazin-1-yl)prop-2-en-1-one] | + (+ indicates binding activity greater than 0% and up to 50%)
18 | C=CC(=O)N1C[C@H](C)N(c2nc(N3CC(N(C)C)C3)nc3c(F)c(-c4n[nH]c5ccccc45)c(Cl)cc23)C[C@H]1C [Compound 295, 1-((2R,5S)-4-(6-chloro-2-(3-(dimethylamino)azetidin-1-yl)-8-fluoro-7-(1H-indazol-3-yl)quinazolin-4-yl)-2,5-dimethylpiperazin-1-yl)prop-2-en-1-one] | + (+ indicates binding activity greater than 0% and up to 50%)
19 | C=CC(=O)N1C[C@H](C)N(c2nc(N3CC(N(C)C)C3)nc3c(F)c(-c4c[nH]c5ccccc45)c(Cl)cc23)C[C@H]1C [Compound 285, 1-((2R,5S)-4-(6-chloro-2-(3-(dimethylamino)azetidin-1-yl)-8-fluoro-7-(1H-indol-3-yl)quinazolin-4-yl)-2,5-dimethylpiperazin-1-yl)prop-2-en-1-one] | + (+ indicates binding activity greater than 0% and up to 50%)
20 | C=CC(=O)N1C[C@H](C)N(c2nc(OCCc3cn(C(C)C)cn3)nc3c(F)c(-c4c(O)cccc4F)c(Cl)cc23)C[C@H]1C [Compound 302, 1-((2R,5S)-4-(6-chloro-8-fluoro-7-(2-fluoro-6-hydroxyphenyl)-2-(2-(1-isopropyl-1H-imidazol-4-yl)ethoxy)quinazolin-4-yl)-2,5-dimethylpiperazin-1-yl)prop-2-en-1-one] | +++ (+++ indicates binding activity greater than 90%)
21 | [2H]C([2H])([2H])N(C1CN(c2nc(N3C[C@@H](C)N(C(=O)C=C)C[C@@H]3C)c3cc(Cl)c(-c4c(O)cccc4F)c(F)c3n2)C1)C([2H])([2H])[2H] (atropisomer, axis not shown) [Compound 207, 1-((2R,5S)-4-(2-(3-(bis(tridueteromethyl)amino)azetidin-1-yl)-6-chloro-8-fluoro-7-((S)-2-fluoro-6-hydroxyphenyl)quinazolin-4-yl)-2,5-dimethylpiperazin-1-yl)prop-2-en-1-one] | +++ (+++ indicates binding activity greater than 90%)
